In patent US11136297B2, “Compositions and methods for treating cancer” (THE REGENTS OF THE UNIVERSITY OF CALIFORNIA, priority 2016, dated 2021):
“Also recorded” adds a separate entry of the source.

Columns and labels:
[1] = target: T1, H-Ras(M72C) GppNHp binding to Raf-1-RBD (Homo sapiens, UniProt P01112, M72C); experiment: Raf-1-RBD pull-down of labeled H-Ras(M72C) GppNHp; conditions: H-Ras(M72C) GppNHp pre-labeled with compound; various concentrations of H-Ras
T1 construct: and H-Ras (residues 1-166) were transformed into Escherichia coli; His6; made in house; host or cells: Escherichia coli BL21(DE3)
Protocol: (§1) FIGS. 29A-29D. […] FIG. 29D: Reconstruction of Ras cycle is achieved by inducing nucleotide exchange of 100 nM Ras by various concentrations of SOS^cat for either 1 or 2 hours and subsequent pull-down by Raf-1-RBD.
(§2) FIGS. 33A-33D. […] In FIG. 33B) through FIG. 33D), normalized pull-down signals are shown below the blot. S. E. M for each signal, number of replicates, and […] for each comparative Standard T-Test are summarized herein (see Tables 33B, 33C, and 33D). […] Comparative statistics were done for normalized pull-down signals between protein constructs of the same condition (i.e. in FIG. 33B) and FIG. 33C), column 1 for unlabeled and 1 for labeled protein, 2 for unlabeled and 2 for labeled, and so on were statistically compared, and in FIG. 33D) only the +SOS^cat and +GppNHp lanes were compared across protein constructs). FIG. 33A) Cartoon representation of pull down protocol. […] Reported values are quantified pull-down signals normalized to input. FIG. 33B) Cartoon representation of pull down protocol. […] FIG. 33C) Cartoon representation of pull down protocol. […] FIG. 33D) Cartoon representation of pull down protocol. Ras activation is achieved by catalyzing nucleotide exchange by SOS^cat and indirectly reading out activated Ras by subsequent pull down by Raf-1-RBD.

[2] = target: T2, H-Ras(M72C) activation by SOScat (Homo sapiens, UniProt P01112, M72C); experiment: SOScat catalyzed nucleotide exchange read out by Raf-1-RBD pull-down; assay type: biochemical
T2 construct: and H-Ras (residues 1-166) were transformed into Escherichia coli; His6; made in house; host or cells: Escherichia coli BL21(DE3)
Protocol: as §1, §2

[3] = target: H-Ras(M72C) GppNHp (Homo sapiens, UniProt P01112, M72C); experiment: EDTA catalyzed exchange and subsequent pull-down by Raf-1-RBD (nucleotide preference); assay type: biochemical; parameters: and H-Ras (residues 1-166) were transformed into Escherichia coli; His6; made in house; host or cells: Escherichia coli BL21(DE3); conditions: EDTA catalyzed exchange, then pull-down by Raf-1-RBD
Protocol: as §1, §2

For `COc1ccc(-n2ncc(C(=O)NCCCSSCCN(C)C)c2C(F)(F)F)cc1` [Compound 2C07, N-(3-((2-(dimethylamino)ethyl)disulfanyl)propyl)-1-(4-methoxyphenyl)-5-(trifluoromethyl)-1H-pyrazole-4-carboxamide], the Raf-1-RBD binding [1] was “does not inhibit Raf binding; also recorded: permits Raf-1-RBD binding”, the “SOScat catalyzed nucleotide exchange” value [2] was “inhibits activation of H-Ras by SOS^cat; also recorded: inhibits SOS^cat catalyzed nucleotide exchange” and the nucleotide preference [3] was “alters intrinsic Ras affinity for nucleotide towards GDP; also recorded: alters Ras nucleotide preference”.
